Measurements: paper PMC6868852, “Molecular cloning and characterization of a grapevine (Vitis vinifera L.) serotonin N-acetyltransferase (VvSNAT2) gene involved in plant defense” (BMC Genomics, 2019)

Tested on: VvSNAT2
Assay: HPLC product quantification; Lineweaver-Burk
Format: biochemical, Vitis vinifera
Conditions: acetyl-CoA 0.5 mM; 100 mM potassium phosphate pH 8.8; 30 min at 45 °C (Fig. 3 legend; Methods print below 30 °C)

## NCCc1c[nH]c2ccc(O)cc12 [serotonin]
  Km: 392 µM
